Assay results from patent US6770674B1, “Mollusc repellent” (priority 1998, dated 2004).
Where “and” joins values, the source holds several entries; their conditions need not be identical. Equal values may be shown once.

Experiments:
[1] = test system: Human; conditions: oral; cited from earlier work
[2] = test system: juvenile Helix aspersa; test: Attractancy/repellency test, sectorised filter technique of Bowen and Antoine; format: in vivo; design: key to Final Position: R: roof of the container; T: test sector; C: control sector; conditions: for % Sector Eaten Control / % Sector Eaten Test: overnight; for repellency to snails (summary in words): arena trials, Helix aspersa
Experimental: One sector of the filter paper was used as the control and this was moistened with distilled water (1 ml). The other half was moistened with the test compound. […] The paper containing the copper oxalate was moistened with water after the addition of the chemical.
Filter sectors were placed on the lid of a plastic tub. The tub was inverted and was used to make a closed test arena. A small gap of 2 mm was left between the two filter sectors so as to prevent mixing of the test paper with the control. One juvenile Helix aspersa was introduced to the control sector and was allowed to remain in the arena overnight.
Attractancy/repellency was detected by dusting the filter paper with charcoal to reveal the slug trails. The results were quantified by placing a transparent grid over the test sectors and measuring the area covered by snail trails. Any phagostimulatory effect of the test compound was indicated by the consumption of the treated paper.

[3] = test system: slug, Deroceras reticulatum; test: Protection of coated seeds fed to slugs (Example 2); format: in vivo; conditions: for % Seeds damaged Broad beans After 7 days: coated broad beans; for % Seeds damaged Pea seeds After 5 days / % Seeds damaged Pea seeds After 7 days: coated pea seeds; for % Seeds damaged Wheat seeds After 5 days / % Seeds damaged Wheat seeds After 7 days: coated wheat seeds
From the text: In the following experiment, various seeds were coated with copper oxalate and ferric potassium oxalate, respectively and fed to the slug, Deroceras reticulatum. The damage to these seeds was compared to damage to control seeds, which were left untreated.

[4] = test system: slug, Deroceras reticulatum; test: Protection of wheat and pea seeds compared to BAYSOL and […] (Example 3); format: in vivo
Experimental: In the following experiment, the efficacy of copper oxalate for the protection of seeds was tested and compared to BAYSOL® and […]®. Seeds were coated with an aqueous suspension of copper oxalate, dried and fed to the slug, Deroceras reticulatum.

[5] = test system: snail, Cernuella virgata; test: Repellency of copper oxalate in a PVA coating (paint) composition on paper towel (Example 4); format: in vivo
From the text: In the following experiment, the repellency of copper oxalate was investigated when incorporated in a paint composition. In this example, the carrier used was a common aqueous PVA solution sold in Australia under the brand name of Bond Crete.
Thirty-three 1 liter containers were used each with 3 layers of paper towel covering the bottom of the container. Half of the uppermost surface of each of the paper towels was coated with a solution made from 1 part copper oxalate: 10 parts water: 1 part PVA emulsion. This coating was applied at a rate of about 2 ml per 100 cm2 and allowed to dry. The towel was then moistened with approximately 20 ml of water. One snail, Cernuella virgata, was placed in the centre of the paper towels at the border of the coated and the uncoated half in each container. […] The snails consumed some of the untreated paper. […] After 7 days, the number of snails on the treated and untreated sections of the paper towel were counted, together with the number on the sides and lid of the container.

[6] = test system: Rat; conditions: oral; cited from earlier work
[7] = after 7 days, 33 containers with one snail each, same coating

Q: With [Cu+2].[OH-].[OH-] [Copper hydroxide] as the compound, how does the “LD50 (Human)” value [1] read?
A: 200 mg/kg

Q: Which “% Sector Eaten Control” value ([2]; 1.61 mg/cm2, control sector of same arena) does the source give for O=C([O-])C(=O)[O-].[Cu+2] [Copper oxalate, copper oxalate] here?
A: 4%

Q: What about the “Final Position” value ([2]; 1.61 mg/cm2, overnight) of the same compound?
A: R

Q: What about the “% Sector Eaten Test” value ([2]; 1.61 mg/cm2, test sector) of the same compound?
A: 0%

Q: And the “% Covered Control” value ([2]; 1.61 mg/cm2, trail cover of control sector of same arena)?
A: 88%

Q: And the “% Covered Test” value ([2]; 1.61 mg/cm2, trail cover of test sector)?
A: 4.4%

Q: And the “% Sector Eaten Control” value ([2]; 2.11 mg/cm2, control sector of same arena)?
A: 5%

Q: What about the “Final Position” value ([2]; 2.11 mg/cm2, overnight) of the same compound?
A: R

Q: What about the “% Sector Eaten Test” value ([2]; 2.11 mg/cm2, test sector) of the same compound?
A: 0%

Q: And the “% Covered Control” value ([2]; 2.11 mg/cm2, trail cover of control sector of same arena)?
A: 71.1%

Q: What about the “% Covered Test” value ([2]; 2.11 mg/cm2, trail cover of test sector) of the same compound?
A: 0%

Q: What about the “% Sector Eaten Control” value ([2]; 2.43 mg/cm2, control sector of same arena) of the same compound?
A: 2%

Q: What about the “Final Position” value ([2]; 2.43 mg/cm2, overnight) of the same compound?
A: R

Q: And the “% Sector Eaten Test” value ([2]; 2.43 mg/cm2, test sector)?
A: 0%

Q: What about the “% Covered Control” value ([2]; 2.43 mg/cm2, trail cover of control sector of same arena) of the same compound?
A: 68.9%

Q: And the “% Covered Test” value ([2]; 2.43 mg/cm2, trail cover of test sector)?
A: 0%

Q: And the “% Sector Eaten Control” value ([2]; 2.47 mg/cm2, control sector of same arena)?
A: 5%

Q: What about the “Final Position” value ([2]; 2.47 mg/cm2, overnight) of the same compound?
A: R

Q: And the “% Sector Eaten Test” value ([2]; 2.47 mg/cm2, test sector)?
A: 0%

Q: What about the “% Covered Control” value ([2]; 2.47 mg/cm2, trail cover of control sector of same arena) of the same compound?
A: 86.7%

Q: What about the “% Covered Test” value ([2]; 2.47 mg/cm2, trail cover of test sector) of the same compound?
A: 0%

Q: And the “% Sector Eaten Control” value ([2]; 3.19 mg/cm2, control sector of same arena)?
A: 2%

Q: And the “Final Position” value ([2]; 3.19 mg/cm2, overnight)?
A: C

Q: And the “% Sector Eaten Test” value ([2]; 3.19 mg/cm2, test sector)?
A: 0%

Q: What about the “% Covered Control” value ([2]; 3.19 mg/cm2, trail cover of control sector of same arena) of the same compound?
A: 88%

Q: And the “% Covered Test” value ([2]; 3.19 mg/cm2, trail cover of test sector)?
A: 0%

Q: What about the “% Sector Eaten Control” value ([2]; 3.46 mg/cm2, control sector of same arena) of the same compound?
A: 1%

Q: And the “Final Position” value ([2]; 3.46 mg/cm2, overnight)?
A: R

Q: And the “% Sector Eaten Test” value ([2]; 3.46 mg/cm2, test sector)?
A: 0%

Q: And the “% Covered Control” value ([2]; 3.46 mg/cm2, trail cover of control sector of same arena)?
A: 66.7%

Q: What about the “% Covered Test” value ([2]; 3.46 mg/cm2, trail cover of test sector) of the same compound?
A: 4.4%

Q: What about the “repellency to snails (summary in words)” value [2] of the same compound?
A: strongly repelled

Q: What about the “% Seeds damaged Broad beans After 7 days” value [3] of the same compound?
A: 5%

Q: And the “% Seeds damaged Pea seeds After 5 days” value [3]?
A: 7%

Q: What about the “% Seeds damaged Pea seeds After 7 days” value [3] of the same compound?
A: 7%

Q: What about the “% Seeds damaged Wheat seeds After 5 days” value [3] of the same compound?
A: 0%

Q: And the “% Seeds damaged Wheat seeds After 7 days” value [3]?
A: 2%

Q: And the “slug repellency for seeds (summary in words)” value ([3]; wheat and pea seeds)?
A: very effective slug repellent

Q: What about the “% Seeds damaged Pea seeds After 7 days” value ([4]; pea seeds, 7 days) of the same compound?
A: 8%

Q: What about the “% Seeds damaged Wheat seeds After 9 days” value ([4]; wheat seeds, 9 days) of the same compound?
A: 10%

Q: What about the “repellency in a coating composition (summary in words)” value ([5]; PVA coating composition) of the same compound?
A: functions effectively as a mollusc repellent

Q: What about the “No. of snails in area: On lid of container” value ([5]; after 7 days, 33 containers with one snail each, coating 1 part copper oxalate: 10 parts water: 1 part PVA emulsion) of the same compound?
A: 1

Q: What about the “No. of snails in area: On Treated half of paper” value [5, 7] of the same compound?
A: 8

Q: What about the “No. of snails in area: On side of container” value [5, 7] of the same compound?
A: 1

Q: And the “No. of snails in area: On untreated half of paper” value [5, 7]?
A: 23

Q: And the “consumption of the treated paper” value ([5]; coated half of paper towel, 7 days)?
A: No consumption

Q: For [Cl-].[Cu+2].[Cu+2].[OH-].[OH-].[OH-] [Copper oxychloride], which “LD50 (Rat)” value [6] is on record?
A: 700 mg/kg

Q: Which “% Seeds damaged Broad beans After 7 days” value [3] does the source give for O=C([O-])C(=O)[O-].O=C([O-])C(=O)[O-].O=C([O-])C(=O)[O-].[Fe+3].[K+].[K+].[K+] [Ferric potassium oxalate, ferric potassium oxalate] here?
A: 0%

Q: What about the “% Seeds damaged Pea seeds After 5 days” value [3] of the same compound?
A: 15%

Q: What about the “% Seeds damaged Pea seeds After 7 days” value [3] of the same compound?
A: 17%

Q: What about the “% Seeds damaged Wheat seeds After 5 days” value [3] of the same compound?
A: 3%

Q: And the “% Seeds damaged Wheat seeds After 7 days” value [3]?
A: 20%

Q: Which “LD50 (Rat)” value [6] does the source give for Copper acetate here?
A: 595 mg/kg

Q: What does the source list for “cetyl tertiary ammonium bromide [CeTAB, reference compound]”?
A: % Sector Eaten Control ([2]; 0.2 mg/cm2, control sector of same arena): 4% and 1% and 2%; Final Position ([2]; 0.2 mg/cm2, overnight): R; % Sector Eaten Test ([2]; 0.2 mg/cm2, test sector): 0%; % Covered Control ([2]; 0.2 mg/cm2, trail cover of control sector of same arena): 77.8% and 75.6% and 86.7%; % Sector Eaten Control ([2]; 2.0 mg/cm2, control sector of same arena): 4% and 5% and 3%; Final Position ([2]; 2.0 mg/cm2, overnight): R; % Sector Eaten Test ([2]; 2.0 mg/cm2, test sector): 0%; % Covered Control ([2]; 2.0 mg/cm2, trail cover of control sector of same arena): 62.2% and 66.6% and 71.1%; % Covered Test ([2]; 2.0 mg/cm2, trail cover of test sector): 0%; repellency to snails (summary in words) [2]: act as a repellent
